SMILES strings stand for the structures. Where only a bound is given, the exact number is not on record here.

The subject of one data set is NRK49F cells. In words: Cell viability MTT assay in myofibroblasts. In kind it is cell-based, rat. The following applies: 24-hours treatment, commonly used doses 1-10 μM. (Tetrazolium dyes change colour on reduction, which living cells bring about.)
For data set [1], the system named is NRK49F rat kidney interstitial fibroblast cell lines. As to the kind of experiment: PDGFB-induced myofibroblast proliferation (MTT). In kind it is cell-based. The following applies: for PDGF-induced myofibroblast proliferation: 10 ng/mL PDGFB, 24 hours, different concentrations of agonist.
Data set [2] concerns Streptozotocin induced type 1 diabetic rats. In words: Diabetic rat kidney: Masson's trichrome staining, tubulointerstitial fibrosis. The data set is classed as in vivo. The following applies: rats treated with 20 mg fluvoxamine + NE-100 1 mg/bwkg/day.
Data set [3] shares this test system. In words: Diabetic rat kidney: PAS staining, mesangial matrix expansion. The following applies: fluvoxamine 20 or 2 mg/bwkg/day + NE-100 1 mg/bwkg/day. The data set is classed as in vivo.
Data set [4] has the same test system. In words: Diabetic rat kidney: fibronectin staining. In kind it is in vivo. The following applies: fluvoxamine 20 mg/bwkg/day + NE-100 1 mg/bwkg/day.
The test system is the same in data set [5]. As to the kind of experiment: Diabetic rat kidney: αSMA protein level, western blot. In kind it is in vivo. To be noted: diabetic rats, fluvoxamine + NE-100 1 mg/bwkg/day. In general terms: A western blot detects proteins with antibodies after separation by electrophoresis.
The test system of data set [6] is mice with unilateral ureter obstruction (UUO). In words: Mice model of unilateral ureteral obstruction (UUO): Masson's trichrome, tubulointerstitial fibrosis. The data set is classed as in vivo. The following applies: fluvoxamine 20 mg/bwkg/day + NE-100 1 mg/bwkg/day for one week.
Data set [7] relates to rat model of bleomycin-induced lung fibrosis. In words: Rat model of bleomycin induced pulmonary fibrosis: Masson trichrome staining of lung. The data set is classed as in vivo. To be noted: fluvoxamine 20 mg/bwkg/day + NE-100 1 mg/bwkg/day for three weeks. As for the experimental part:
Masson trichrome staining of tissue sections was performed Bars represent Mean±SEM, n=6/group). Specifically:
(§1) For the induction of pulmonary fibrosis male Wistar rats were anesthetized. Bleomycin (5 mg/bwkg in a 300 μl solution of isotonic saline) or 300 μl isotonic saline was administered into the trachea using a 30G needle.
(§2) Animals were randomly divided into 4 groups of 6 rats each as follows (i)—control group was sham operated, received isotonic saline per os daily for 3 weeks, (ii) vehicle treated group: received isotonic saline per os daily for 3 weeks after the induction of lung fibrosis, (iii) fluvoxamine treated group: received fluvoxamine (20 mg/bwkg/day per os for 3 weeks after the induction of lung fibrosis), (iv) fluvoxamine+NE100 treated group: received fluvoxamine (20 mg/bwkg/day; per os) and 1 mg/bwkg/day NE100 (i.p. for 3 weeks after the induction of lung fibrosis. […]
The stained sections were viewed and photographed with Pannoramic 250 Flash and Pannoramic Viewer 1.15.2 (3D HISTECH Ltd. Budapest, Hungary) Adobe Photoshop 13.0 and Scion Image for Windows software were used for the analysis. […] Finally these ratios were statistically analyzed in all of the treatment groups.

For data set [8] the test system is unchanged. As to the kind of experiment: Rat model of bleomycin induced pulmonary fibrosis: αSMA protein in lung, western blot. The data set is classed as in vivo. To be noted: fluvoxamine 20 mg/bwkg/day + NE-100 1 mg/bwkg/day for three weeks. As for the experimental part: (Bars represent Mean±SEM, n=6/group).
as §1, §2
Tissue samples were lysed in buffer containing leupeptin, aprotinin, Triton X-100, Tris-HCl, Ethylene glycol-bis (2-aminoethylether),N,N,N′,N′-tetraacetic-acid, NaF, Phenylmethylsulphonylfluoride and Na-orthovanadate (each substance were purchased from Sigma-Aldrich Co., St. Louis, Mo., USA) and centrifuged to pellet nuclei and large cellular fragments. Protein concentration of the supernatants was determined by Bradford assay (Bio-Rad Laboratories, Hercules, Calif., USA). […] Bands were analyzed with Quantity One software version 4.6.9. […]

The subject of another data set is NRK49F myofibroblasts. To be noted: all applied concentrations, even the smallest 1 μM.
In another data set the target is S2R (Homo sapiens, UniProt Q5BJF2). To be noted: read-out: Ki for σ2 receptors; cited from earlier work.
A further data set deals with PCP receptors. The following applies: cited from earlier work.
Data set [9] has as its system Japanese patients with IPF. To be noted: 1,800 mg/day, 107 Japanese patients with IPF; cited from earlier work.
Data set [10] deals with post-AMI left ventricular remodeling / infarct expansion. The following applies: cited from earlier work.

Sequence of S2R (Q5BJF2 whole entry, species assumed): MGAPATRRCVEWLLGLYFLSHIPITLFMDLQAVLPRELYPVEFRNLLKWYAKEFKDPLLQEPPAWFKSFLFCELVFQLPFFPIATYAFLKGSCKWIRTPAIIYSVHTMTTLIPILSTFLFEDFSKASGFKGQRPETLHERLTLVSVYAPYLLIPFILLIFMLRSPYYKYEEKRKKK
Protocol for NRK49F myofibroblasts: In 6-well plates of NRK49F myofibroblasts (6×10^6 cells/well) TGF-β (1 nM) induced production of fibrillar components of the extracellular matrix was measured by Sirius Red staining. To investigate the effect of S1R agonist compounds a group of cells was treated for 48 hours with the various S1R agonists. Solvent treated cells served as controls. (Bars represent mean±SEM)
To investigate the deposition of fibrillar collagen Sirius Red staining was performed. 48 hours after the treatment with TGF-β and said compounds the NRK-49F cells were incubated for 10 minutes with Kahle fixative solution. 0.1% Sirius Red (Direct Red 80, Sigma-Aldrich) in 1.2% picric acid was added for each well and plates were incubated for 30 minutes at RT. The unconnected dye molecules were washed with distilled water. The bound Sirius Red dye was eluated with 0.1 M NaOH solution, absorbance was recorded at 540 nm in a Hidex Chameleon Microplate Reader (Triathler, Plate Chameleion, 300SL Lablogic Systems, Inc., Brandon, Fla., USA) used MikroWin program. Vehicle treated cells served as controls.

As to `CCCN(CCC)CCc1ccc(OC)c(OCCc2ccccc2)c1.Cl` [NE-100, 4-Methoxy-3-(2-phenylethoxy)-N,N-dipropylbenzeneethanamine hydrochloride], the “cytotoxicity / cell viability in myofibroblasts” value (“cytotoxicity / cell viability” for short) in the data set on NRK49F cells is recorded as “not cytotoxic”. For the same molecule, the “effect of NE-100 co-incubation on anti-proliferative effect of fluvoxamine” value in data set [1] (NE-100 3 μM with fluvoxamine 10 μM, PDGF-induced) was “suspended the effect of fluvoxamine”. The “effect of NE-100 co-administration on protective effect of fluvoxamine (tubulointerstitial fibrosis)” value in data set [2] is “inhibited the protective effect of fluvoxamine”. Also, the “effect of NE-100 co-administration on renoprotection of fluvoxamine (mesangial matrix expansion)” value in [3] is “prohibited the renoprotection of fluvoxamine”. For the same molecule, the “effect of NE-100 on fluvoxamine's effect on fibronectin accumulation” value in data set [4] was “suspended this beneficial effect”. The “effect of NE-100 co-administration on fluvoxamine's effect on αSMA protein level” value in data set [5] is given as “suspended”. In addition, the “effect of NE-100 on fluvoxamine's effect on tubulointerstitial fibrosis after UUO” value in data set [6] is “suspended the beneficial effect of fluvoxamine”. The “effect of NE-100 on fluvoxamine's effect on lung fibrosis” value in data set [7] is on record as “suspended the effect of fluvoxamine”. Also, the “effect of NE-100 on fluvoxamine's effect on lung αSMA” value in data set [8] is given as “suspended the beneficial effect of fluvoxamine”.

A word on the Ki: it is the equilibrium dissociation constant of an inhibitor or competing ligand from its target. By IC50 is commonly meant the midpoint of a concentration-inhibition curve. Take `O=C(OCCN1CCOCC1)C1(c2ccccc2)CCCCC1` [PRE-084, 2-morpholin-4-ylethyl 1-phenylcyclohexane-1-carboxylate]: the “cytotoxicity / cell viability” value in the data set on NRK49F cells is on record as “not cytotoxic”. In addition, the PDGF-induced myofibroblast proliferation result in data set [1] is “significantly decreased PDGF-induced myofibroblast proliferation”. For the same molecule, the “TGFβ-induced ECM production (Sirius Red)” value with NRK49F myofibroblasts is recorded as “significantly inhibited TGFβ-induced ECM production”. Besides, at S2R, the Ki was 13.1 µM. Moreover, the IC50 on PCP receptors was over 100 µM.

As for `COc1ccc(CCN2CCN(CCCc3ccccc3)CC2)cc1OC` [SA-4503, 1-[2-(3,4-Dimethoxyphenyl)ethyl]-4-(3-phenylpropyl)piperazine], in the data set on NRK49F cells, the “cytotoxicity / cell viability” value is listed as “not cytotoxic”. The PDGF-induced myofibroblast proliferation result in data set [1] is given as “significantly decreased PDGF-induced myofibroblast proliferation”. The “TGFβ-induced ECM production (Sirius Red)” value in the data set with NRK49F myofibroblasts is given as “significantly inhibited TGFβ-induced ECM production”.

As for `Cc1ccc(=O)n(-c2ccccc2)c1` [pirfenidone, 5-Methyl-1-phenylpyridin-2-one], the “primary end point, pirfenidone versus placebo” value in data set [9] is “not significantly different between the two groups”.

Regarding `COc1ccc(/C=C/C(=O)Nc2ccccc2C(=O)O)cc1OC` [tranilast, 2-{[(2E)-3-(3,4-dimethoxyphenyl)prop-2-enoyl]amino}benzoic acid], the left ventricular remodeling result in [10] (commencement of treatment delayed to 7 days post-AMI) is “impeded left ventricular remodeling”. In addition, in data set [10] (intervention from 24h post-AMI), the infarct expansion result was “exacerbated infarct expansion”.

The record behind these values is patent US10842794B2, “Use of Sigma-1 receptor agonist compounds” (MTA TÁMOGATOTT KUTATÓCSOPORTOK IRODÁJA, priority 2014, dated 2020).
